The values that follow come from publication PMC5944259 (Evidence-based Complementary and Alternative Medicine : eCAM, 2018).

For series [1] the following is noted: database annotation in words, no reference given; cited from earlier work.
For series [2] the following is noted: database annotation in words, no reference given; cited from earlier work. The source holds these as a separate data set.
Series [3] deals with T1, Rho-associated protein kinase 1 (Homo sapiens, UniProt Q13464).
T1 construct: purchased Proteintech (Shanghai)
Nature of the series: Enzyme activity test ROCK1 (EMSA). It is filed as biochemical. As to the method:
(§1) As there were some kinase proteins in our protein database with different characteristics to other proteins, we used an enzyme activity test to validate the real interactions between the protein and molecule.
(§2) Selected pairs of protein and molecule participated in enzyme activity test, while electrophoretic mobility shirt assay (EMSA) and Lance ultra were conducted in an experiment with […] (100, 50, 25, 12.5, 6.25, 3.12, 1.56, 0.78, and 0.39 μmol/l). Finally, the IC50 (nM) value was used to assess the ability of a molecule to act or inhibit the protein.
(Mobility shift assays separate free from complexed probe on a gel.)

For series [4] the following is noted: cited from earlier work.
Another series concerns the target T2, Acetyl-CoA carboxylase 1 (Homo sapiens, UniProt Q13085).
T2 construct: purchased Proteintech (Shanghai)
Nature of the series: SPR assay ACC1. It is filed as binding. To be noted: for Offset / Rmax / χ^2: ACC1. As to the method:
In the SPR test, the target proteins were first combined with the CM5 chip. After correction through standard solutions, a series of different concentrations of molecules (0, 2, 4, 8, 16, 32, 64, and 128 μmol/l) were tested for their binding to the protein. Finally, the affinity between the protein and molecule was determined by an array of parameters, such as the Kd values, Rmax, offset, and χ^2.

The target in series [5] is T3, Protein kinase C, beta type (Homo sapiens, UniProt P05771).
T3 construct: purchased Proteintech (Shanghai)
The series is described as follows: Enzyme activity test PKC-B (EMSA). In kind it is biochemical. The protocol: as §1, §2

In series [6] the target is T4, Mammalian target of rapamycin (Homo sapiens, UniProt P42345).
T4 construct: purchased Proteintech (Shanghai)
The series is described as follows: Enzyme activity test mTOR (Lance ultra). In kind it is biochemical. The protocol: as §1, §2

Series [7] has as its target T5, Superoxide dismutase [Mn] (Homo sapiens, UniProt P04179).
T5 construct: purchased Sino Biological (Shanghai)
T5 sequence (P04179 25-222): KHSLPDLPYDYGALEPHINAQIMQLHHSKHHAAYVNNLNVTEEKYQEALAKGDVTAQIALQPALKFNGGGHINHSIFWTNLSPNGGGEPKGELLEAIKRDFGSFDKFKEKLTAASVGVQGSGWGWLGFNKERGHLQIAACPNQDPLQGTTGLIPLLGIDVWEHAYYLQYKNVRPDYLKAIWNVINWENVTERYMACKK
Nature of the series: SPR assay SOD2. It is filed as binding. In general terms: In SPR one partner is held on a chip, and binding of the other changes the refractive index at the surface.

Read-outs that look alike come from different tables or passages of the source.

T1 sequence (Q13464 whole entry): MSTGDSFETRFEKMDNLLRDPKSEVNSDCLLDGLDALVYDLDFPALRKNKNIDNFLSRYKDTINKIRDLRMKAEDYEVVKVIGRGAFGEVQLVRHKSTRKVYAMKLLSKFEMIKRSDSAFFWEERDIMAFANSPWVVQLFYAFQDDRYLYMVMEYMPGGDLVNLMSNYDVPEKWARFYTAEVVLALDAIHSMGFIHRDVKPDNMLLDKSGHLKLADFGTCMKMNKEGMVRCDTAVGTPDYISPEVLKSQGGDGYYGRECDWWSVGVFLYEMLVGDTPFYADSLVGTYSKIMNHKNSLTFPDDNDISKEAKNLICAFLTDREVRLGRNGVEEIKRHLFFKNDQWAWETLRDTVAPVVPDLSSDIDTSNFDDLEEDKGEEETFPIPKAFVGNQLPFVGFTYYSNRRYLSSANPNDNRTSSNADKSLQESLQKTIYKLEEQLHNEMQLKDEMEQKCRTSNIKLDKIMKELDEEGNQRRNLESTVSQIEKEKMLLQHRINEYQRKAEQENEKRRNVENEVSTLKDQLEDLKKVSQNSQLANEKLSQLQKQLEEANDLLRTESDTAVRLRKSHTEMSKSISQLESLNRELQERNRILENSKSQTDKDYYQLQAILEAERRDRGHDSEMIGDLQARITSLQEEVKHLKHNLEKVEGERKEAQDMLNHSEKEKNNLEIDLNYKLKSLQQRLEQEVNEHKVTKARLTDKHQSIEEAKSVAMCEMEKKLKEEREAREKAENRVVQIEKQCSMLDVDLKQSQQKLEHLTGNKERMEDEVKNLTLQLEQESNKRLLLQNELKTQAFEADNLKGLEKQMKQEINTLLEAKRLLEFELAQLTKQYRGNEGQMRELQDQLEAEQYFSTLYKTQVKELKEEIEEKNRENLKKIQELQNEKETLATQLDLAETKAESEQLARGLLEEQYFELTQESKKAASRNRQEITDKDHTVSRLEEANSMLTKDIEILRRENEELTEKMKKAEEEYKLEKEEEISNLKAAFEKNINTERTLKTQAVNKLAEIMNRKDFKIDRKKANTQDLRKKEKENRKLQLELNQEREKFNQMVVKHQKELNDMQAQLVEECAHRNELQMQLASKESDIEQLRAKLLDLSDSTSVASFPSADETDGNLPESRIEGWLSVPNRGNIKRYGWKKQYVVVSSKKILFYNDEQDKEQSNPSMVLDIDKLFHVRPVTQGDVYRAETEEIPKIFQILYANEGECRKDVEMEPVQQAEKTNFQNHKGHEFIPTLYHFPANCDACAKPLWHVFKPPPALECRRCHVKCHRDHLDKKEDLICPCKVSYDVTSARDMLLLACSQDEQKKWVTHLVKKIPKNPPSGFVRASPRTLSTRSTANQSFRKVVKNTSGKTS
T3 sequence (P05771 whole entry): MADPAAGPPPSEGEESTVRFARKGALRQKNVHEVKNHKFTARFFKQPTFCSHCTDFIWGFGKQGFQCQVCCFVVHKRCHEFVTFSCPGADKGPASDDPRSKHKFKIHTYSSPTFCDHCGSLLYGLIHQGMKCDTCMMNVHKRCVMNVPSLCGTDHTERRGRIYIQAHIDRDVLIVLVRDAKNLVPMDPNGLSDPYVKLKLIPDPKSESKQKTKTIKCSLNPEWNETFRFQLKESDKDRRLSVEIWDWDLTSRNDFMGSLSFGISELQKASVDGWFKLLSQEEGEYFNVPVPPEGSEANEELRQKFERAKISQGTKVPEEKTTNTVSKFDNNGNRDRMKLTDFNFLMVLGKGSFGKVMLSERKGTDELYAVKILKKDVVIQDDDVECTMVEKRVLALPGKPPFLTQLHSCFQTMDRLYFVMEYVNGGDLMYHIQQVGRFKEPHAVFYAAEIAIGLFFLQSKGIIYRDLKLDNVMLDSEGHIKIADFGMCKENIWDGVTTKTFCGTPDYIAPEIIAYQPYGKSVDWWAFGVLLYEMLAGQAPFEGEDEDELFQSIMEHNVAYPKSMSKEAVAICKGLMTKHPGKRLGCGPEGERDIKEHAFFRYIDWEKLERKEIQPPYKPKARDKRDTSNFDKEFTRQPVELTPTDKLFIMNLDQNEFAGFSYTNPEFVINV

Consider `OC[C@H]1O[C@@H](O[C@@H]2OC=C[C@H]3[C@H](O)[C@@H]4O[C@]4(CO)[C@@H]23)[C@H](O)[C@@H](O)[C@@H]1O` [catalpol / catalpinoside], for which the “stability remark (acid, base, high temperature)” value in series [1] is recorded as “酸碱高温下可分解，分解后变黑”. The “作用药理 (pharmacological action)” value in series [2] was “有降糖作用”.

As usually defined, the IC50 is the concentration needed to halve the response being measured. Read a high IC50 as lower potency. Usually Kd stands for the concentration at which binding is half-saturated. In series [3], `COC(=O)C1=CO[C@@H](O[C@@H]2O[C@H](CO)[C@@H](O)[C@H](O)[C@H]2O)[C@@H]2[C@H](C)O[C@@H](O)C[C@H]12` [Morroniside] came in with an IC50 above 10 µM. Further, in series [4], the “absorbed in blood after the oral administration of GDC” value (shortened to “absorbed in blood”) is “could be absorbed in blood”. For the same molecule, on Acetyl-CoA carboxylase 1 (SPR), the Offset is listed as −0.2651 RU, the Rmax is on record as 2.204 RU and the “χ^2” value was 0.0962 RU^2. The Kd on Acetyl-CoA carboxylase 1 (SPR, ACC1 on CM5 chip, read-out: Kd) amounted to 13.6 µM. In addition, the IC50 in series [5] was above 10 µM.

For `COc1cc(C(=O)OCCCCNC(=N)N)cc(OC)c1O` [leonurine], the “作用药理 (pharmacological action)” value in series [2] is reported as “抗血小板作用”.

`CC(C)(O)[C@@H]1CC[C@](C)([C@H]2[C@@H](O)C[C@@]3(C)[C@@H]4C[C@H](O[C@@H]5O[C@H](CO)[C@@H](O)[C@H](O)[C@H]5O)[C@H]5C(C)(C)[C@@H](O[C@@H]6OC[C@@H](O)[C@H](O)[C@H]6O)CC[C@@]56C[C@@]46CC[C@]23C)O1` [Astragaloside IV] displayed an IC50 in series [6] above 10 µM. Also, the “作用药理 (pharmacological action)” value in series [2] is listed as “诱导TNF-α分泌，降低直接作用+作用于肝糖调节酶+通过上调Sarco/内质网Ca2 + -ATP酶2的表达。抑制足细胞介导的细胞凋亡的内质网应激”. Further, in series [4], the “absorbed in blood” value is recorded as “could be absorbed in blood”. On Acetyl-CoA carboxylase 1, the Kd came to 92.5 µM. At Acetyl-CoA carboxylase 1 (SPR), the Offset came out at 0.2424 RU, the Rmax is 7.856 RU and the “χ^2” value turned out to be 0.0243 RU^2.

`COc1c(O)cc(O)c2c(=O)cc(-c3ccccc3)oc12` [Wogonin]: in series [7] (SOD2), the Offset is −3.611 RU, the Rmax turned out to be 14.3 RU and the “χ^2” value is recorded as 2.11 RU^2. Further, in series [7] (SOD2 on CM5 chip), binding was put at a Kd of 5.08 µM.

Regarding astragalosideⅤ, the “作用药理 (pharmacological action)” value in series [2] is listed as “阻碍羧甲基赖氨酸、戊糖苷形成，抑制糖尿病视网膜病变、神经病变进程”.

For `C[C@@H]1O[C@@H](OC[C@H]2O[C@@H](Oc3c(-c4ccc(O)c(O)c4)oc4cc(O)cc(O)c4c3=O)[C@H](O)[C@@H](O)[C@@H]2O)[C@H](O)[C@H](O)[C@H]1O` [Rutin], the “absorbed in blood” value in series [4] is reported as “could be absorbed in blood”.

Take stachyose: in series [2], the “作用药理: side effect” value was “胀气副作用，炮制可减少水苏糖的量”.
